This assay addresses T1, GST-ALK5 (Homo sapiens, UniProt P36897).
T1 sequence (P36897 34-503): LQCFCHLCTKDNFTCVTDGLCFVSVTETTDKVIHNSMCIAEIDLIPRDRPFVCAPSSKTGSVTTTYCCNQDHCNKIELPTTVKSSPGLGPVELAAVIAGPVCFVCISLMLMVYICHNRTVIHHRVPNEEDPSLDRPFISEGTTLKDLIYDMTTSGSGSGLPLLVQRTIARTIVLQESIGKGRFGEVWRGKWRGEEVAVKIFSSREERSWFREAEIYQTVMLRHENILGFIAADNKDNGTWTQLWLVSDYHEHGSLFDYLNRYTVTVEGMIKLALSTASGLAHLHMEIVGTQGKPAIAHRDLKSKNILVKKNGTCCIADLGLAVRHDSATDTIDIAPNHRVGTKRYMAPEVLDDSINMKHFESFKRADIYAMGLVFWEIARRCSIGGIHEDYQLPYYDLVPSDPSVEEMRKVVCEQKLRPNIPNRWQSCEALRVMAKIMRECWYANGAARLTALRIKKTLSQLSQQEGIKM
Description: In-vitro (enzyme) kinase assay, 384-well flashplate, GST-SMAD2 substrate. The class given is biochemical. The settings on record: 31.2 nM GST-ALK5, 439 nM GST-SMAD2, 3 mM ATP, 30° C., 45 min. As to the method:
In-Vitro (Enzyme) Assay for Determination of the Efficacy of Inhibitors of the Inhibition of TGF-Beta-Mediated Effects
The kinase assay was carried out as 384-well flashplate assay. 31.2 nM of GST-ALK5, 439 nM of GST-SMAD2 and 3 mM of ATP (with 0.3 μCi of ^33P-ATP/well) were incubated in a total volume of 35 μl (20 mM of HEPES, 10 mM of MgCl2, 5 mM of MnCl2, 1 mM of DTT, 0.1% of BSA, pH 7.4) without or with test substance (5-10 concentrations) at 30° C. for 45 min. The reaction was stopped using 25 μl of 200 mM EDTA solution, filtered with suction at room temperature after 30 min, and the wells were washed with 3 times 100 μl of 0.9% NaCl solution. Radioactivity was measured in the TopCount. The IC50 values were calculated using RS1 (Table 1). Above and below, all temperatures were indicated in ° C.
Usually IC50 stands for the concentration at which inhibition is half-maximal. A high value points to weaker potency in that assay. Consider `NC(=O)c1sc2nc(OCC3CCC3)nc(-c3cccc(Cl)c3)c2c1N` [No 9, 5-Amino-4-(3-chloro-phenyl)-2-cyclobutylmethoxy-thieno[2,3-d]pyrimidine-6-carboxylic acid amide], for which the IC50 fell in the range of 100 to 500 nM.
On to `NC(=O)c1sc2nc(O[C@H]3CNC(=O)C3)nc(-c3cccc(Cl)c3)c2c1N` [No 63, 5-Amino-4-(3-chloro-phenyl)-2-((R)-5-oxo-pyrrolidin-3-yloxy)-thieno[2,3-d]pyrimidine-6-carboxylic acid amide], for which the IC50 fell in the range of 100 to 500 nM.
`NC(=O)c1sc2nc(OCCC(O)CO)nc(-c3cccc(Cl)c3)c2c1N` (centres unmarked) [No 62, 5-Amino-4-(3-chloro-phenyl)-2-(3,4-dihydroxy-butoxy)-thieno[2,3-d]pyrimidine-6-carboxylic acid amide] returned a 50% inhibitory concentration (IC50) of under 100 nM.
As for `CC(C)(C)OCCOc1nc(-c2cccc(Cl)c2)c2c(N)c(C(N)=O)sc2n1` [No 11, 5-Amino-2-(2-tert-butoxy-ethoxy)-4-(3-chloro-phenyl)-thieno[2,3-d]pyrimidine-6-carboxylic acid amide], the figure is 100 to 500 nM; as for `NC(=O)c1sc2nc(OCCCN3CCCC3=O)nc(-c3cccc(Cl)c3)c2c1N` [No 54, 5-Amino-4-(3-chloro-phenyl)-2-[3-(2-oxo-pyrrolidin-1-yl)-propoxy]-thieno[2,3-d]pyrimidine-6-carboxylic acid amide], 100 to 500 nM; as for `Cc1ccc(-c2nc(OCCCO)nc3sc(C(N)=O)c(N)c23)o1` [No 22, 5-Amino-2-(3-hydroxy-propoxy)-4-(5-methyl-furan-2-yl)-thieno[2,3-d]pyrimidine-6-carboxylic acid amide], 100 to 500 nM.
Next, `Cc1ccc(-c2nc(OCCN3CCOCC3)nc3sc(C(N)=O)c(N)c23)o1` [No 20, 5-Amino-4-(5-methyl-furan-2-yl)-2-(2-morpholin-4-yl-ethoxy)-thieno[2,3-d]pyrimidine-6-carboxylic acid amide]: over 1000 nM.
The compound `NC(=O)c1sc2nc(OC[C@H]3C[C@@H]3CO)nc(-c3cccc(Cl)c3)c2c1N` [No 60, 5-Amino-4-(3-chloro-phenyl)-2-((1S,2S)-2-hydroxymethyl-cyclopropylmethoxy)-thieno[2,3-d]pyrimidine-6-carboxylic acid amide] displayed an IC50 of under 100 nM.
As for `NC(=O)c1sc2nc(OCC3CCCO3)nc(-c3cccc(Cl)c3)c2c1N` (centres unmarked) [No 73, 5-Amino-4-(3-chloro-phenyl)-2-(tetrahydro-furan-2-ylmethoxy)-thieno[2,3-d]pyrimidine-6-carboxylic acid amide], the figure is 100 to 500 nM.
As for `NC(=O)c1sc2nc(OCC3CCC(CO)CC3)nc(-c3cccc(Cl)c3)c2c1N` (centres unmarked) [No 67, 5-Amino-4-(3-chloro-phenyl)-2-(4-hydroxymethyl-cyclohexylmethoxy)-thieno[2,3-d]pyrimidine-6-carboxylic acid amide], the figure is 100 to 500 nM.
Next, `NC(=O)c1sc2nc(OCC#CCO)nc(-c3cccc(Cl)c3)c2c1N` [No 59, 5-Amino-4-(3-chloro-phenyl)-2-(4-hydroxy-but-2-ynyloxy)-thieno[2,3-d]pyrimidine-6-carboxylic acid amide]: under 100 nM.
Compound `NC(=O)c1sc2nc(OCCOCCO)nc(-c3cccc(Cl)c3)c2c1N` [No 66, 5-Amino-4-(3-chloro-phenyl)-2-[2-(2-hydroxy-ethoxy)-ethoxy]-thieno[2,3-d]pyrimidine-6-carboxylic acid amide] gave a half-inhibitory concentration (IC50) of 100 to 500 nM.
As for `Cc1ccc(-c2nc(O[C@H](C)[C@@H](C)O)nc3sc(C(N)=O)c(N)c23)o1` [No 34, 5-Amino-2-((1R,2R)-2-hydroxy-1-methyl-propoxy)-4-(5-methyl-furan-2-yl)-thieno[2,3-d]pyrimidine-6-carboxylic acid amide], the figure is 100 to 500 nM; as for `Cc1ccc(-c2nc(OCc3cccnc3)nc3sc(C(N)=O)c(N)c23)o1` [No 31, 5-Amino-4-(5-methyl-furan-2-yl)-2-(pyridin-3-ylmethoxy)-thieno[2,3-d]pyrimidine-6-carboxylic acid amide], 100 to 500 nM.
